Experiment [1] deals with T1, KRAS protein (His-tagged GDP-loaded G12S 1-169) (Homo sapiens, UniProt P01116, G12S).
T1 construct: His-tagged GDP-loaded G12S 1-169
As to the kind of experiment: Covalent modification of KRAS protein, intact-protein LC-MS. The experiment is classed as binding. The note with it: 24hrs at room temperature, KRAS protein ~2 µM. As for the experimental part:
Test compounds are prepared as 10 mM stock solutions in DMSO (Fisher cat#BP231-100). KRAS protein (His-tagged GDP-loaded wildtype 1-169, His-tagged GDP-loaded G12S 1-169 or His-tagged GDP-loaded G12D 1-169) is diluted to ~2 µM in appropriate buffer (e.g., a Hepes buffer at physiological conditions). For testing KRAS modification, compounds are diluted to 50X final test concentration in DMSO in 96-well storage plates. 2 µl of the diluted 50X compounds are added to appropriate wells in the PCR plate (Fisher cat#AB-0800). […] of the stock protein solution is added to each well of the 96-well PCR plate. Reactions are mixed carefully. The plate is sealed well with aluminum plate seal, and stored in drawer at room temperature for 24hrs. 5 µl of 2% formic acid (Fisher cat#A1 17-50) in MilliQ H2O is then added to each well followed by mixing with a pipette. The plate is then resealed with aluminum seal and stored until mass spectrometry analysis.
The extent of covalent modification of KRAS proteins was determined by liquid chromatography electrospray mass spectrometry analysis of the intact proteins on a Thermo Q-Exactive Plus mass spectrometer. 20 µl of sample was injected onto a bioZen 3.6 µm Intact C4 column (Phenomenex cat#00B-4767-AN) placed in a column oven set to 40°C and separated using a suitable LC gradient from -20% to ~60% solvent B. Solvent A was 0.1% formic acid and solvent B was 0.1% formic acid in acetonitrile. HESI source settings were set to 40, 5 and 1 for the sheath, auxiliary and sweep gas flow, respectively. The spray voltage was 4 kV, and the capillary temperature was 320°C. S-lens RF level was 50 and auxiliary gas heater temperature was set to 200°C. The mass spectrometry was acquired using a scan range from 650 to 1750 m/z using positive polarity at a mass resolution of 70,000, AGC target of 1e6 ions and maximum injection time of 250ms. The recorded protein mass spectrum was deconvoluted from the raw data file using Protein Deconvolution v4.0 (Thermo). The protein mass and adduct masses were exported with their peak intensities. The peak intensities for the unmodified and modified protein were used to calculate the percent covalent modification of the KRAS protein based on the following equation: %KRAS protein modification = ((KRAS-compound) / (KRAS) + (KRAS-Compound)) *100.

Experiment [2] concerns the target T2, K-Ras G12S (Homo sapiens, UniProt P01116, G12S).
T2 construct: made in house; host or cells: E. coli (e.g., BL21 (DE3))
Nature of the experiment: HTRF assay of the K-Ras / SOS1 interaction. The experiment is classed as biochemical. The conditions noted are these: IC50 (against K-Ras G12D) to IC50 (against K-Ras G12S). The essentials: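 Compounds (duplicates, 10 µM to 0.01 µM) were incubated ≥~10 min with Eu-labelled GST-K-Ras G12S and XL665-labelled His-hSOS1 in HEPES pH 7.4 buffer containing NaCl, DTT, BSA and Igepal. Disruption measured as HTRF emission ratio 665/620 nm, fitted to IC50.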

Experiment [3] relates to GP2D cells. Nature of the experiment: Cell proliferation assay (CellTiter-Glo), K-Ras G12D cells. It is filed as cell-based. The conditions noted are these: GP2D cells (K-Ras G12D); read-out: Inhibition of GP2D Cells (IC50). The essentials:
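CellTiter-Glo luminescence, taken roughly 5 days after dosing, measured growth of G12D-mutant GP2D cells in DMEM/2 mM glutamine/10% FBS. Compound dilution series (e.g., 9 points, 3-fold) added the day after plating. Four-parameter fitting gave IC50.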

Structures are written as SMILES. pIC50: −log10 of the molar value.

Regarding `N#Cc1nccn1C(=O)N1CCN(c2nc(OC[C@@]34CCCN3C[C@H](F)C4)nc3c(F)c(-c4ccc(F)c5sc(N)nc45)c(Cl)cc23)CC(F)(F)C1` [Compound A204, 1-(4-(7-(2-amino-7-fluorobenzo[d]thiazol-4-yl)-6-chloro-8-fluoro-2-(((2R,7aS)-2-fluorotetrahydro-1H-pyrrolizin-7a(5H)-yl)methoxy)quinazolin-4-yl)-6,6-difluoro-1,4-diazepane-1 - carbonyl)-1H-imidazole-2-carbonitrile], in experiment [1], the “% G12S Modification at 24 hr.” value is given as “++ (++ indicates between about 1%- 20% labelling)”. Also, the “Ratio of IC50 KRAS G12D vs. IC50 KRAS G12S” value (shortened to “Ratio”) in experiment [2] was “A (A: indicates that the ratio of IC50 against KrasG12D vs. IC50 against KrasG12S is 1-fold or greater)”. Besides, in experiment [3], the pIC50 was 5.00 to 6.00.
On the same counts, the results for `N#Cc1c(N)sc2c(F)ccc(-c3c(Cl)cc4c(N5CCOC6(CN(C(=O)n7cncn7)C6)C5)nc(OC[C@@]56CCCN5C[C@H](F)C6)nc4c3F)c12` [Compound A132, 4-(4-(2-(1H-1,2,4-triazole-1-carbonyl)-5-oxa-2,8-diazaspiro[3.5]nonan-8-yl)-6-chloro-8-fluoro-2-(((2R,7aS)-2-fluorotetrahydro-1H-pyrrolizin-7a(5H)-yl)methoxy)quinazolin-7-yl)-2-amino-7-fluorobenzo[b]thiophene-3-carbonitrile] are “+++ (+++ indicates greater than 20% labelling)”, “A (A: indicates that the ratio of IC50 against KrasG12D vs. IC50 against KrasG12S is 1-fold or greater)” and 5.00 to 6.00.
Consider `Nc1nc2c(-c3c(Cl)cc4c(N5CCC6(CN(C(=O)n7cncn7)CCO6)C5)nc(OC[C@@]56CCCN5C[C@H](F)C6)nc4c3F)ccc(F)c2s1` (stereo partly drawn) [Compound A202, (2-(7-(2-amino-7-fluorobenzo[d]thiazol-4-yl)-6-chloro-8-fluoro-2-(((2R,7aS)-2-fluorotetrahydro-1H-pyrrolizin-7a(5H)-yl)methoxy)quinazolm-4-yl)-6-oxa-2,9-diazaspiro[4.5]decan-9-yl)(1H-1,2,4-triazol-1-yl)methanone], for which the “% G12S Modification at 24 hr.” value in experiment [1] is listed as “+++ (+++ indicates greater than 20% labelling)”. Besides, the pIC50 in experiment [3] was 5.00 to 6.00.
The matching figures for `N#Cc1nccn1C(=O)N1CCN(c2nc(OC[C@@]34CCCN3C[C@H](F)C4)nc3c(F)c(-c4ccc(F)c5sc(N)nc45)c(Cl)cc23)CC1` [Compound A272, 1-(4-(7-(2-amino-7-fluorobenzo[d]thiazol-4-yl)-6-chloro-8-fluoro-2-(((2R,7aS)-2-fluorotetrahydro-1H-pyrrolizin-7a(5H)-yl)methoxy)quinazolin-4-yl)piperazine-1-carbonyl)-1H-imidazole-2-carbonitrile]: “+++ (+++ indicates greater than 20% labelling)” and 5.00 to 6.00.
`Nc1nc2c(-c3c(Cl)cc4c(N5CCCCC6(CN(C(=O)n7cncn7)C6)C5)nc(OC[C@@]56CCCN5C[C@H](F)C6)nc4c3F)ccc(F)c2s1` [Compound A265, (6-(7-(2-amino-7-fluorobenzo[d]thiazol-4-yl)-6-chloro-8-fluoro-2-(((2R,7aS)-2-fluorotetrahydro-1H-pyrrolizin-7a(5H)-yl)methoxy)quinazolm-4-yl)-2,6-diazaspiro[3.6]decan-2-yl)(1H-1,2,4-triazol-1-yl)methanone]: the “% G12S Modification at 24 hr.” value in experiment [1] is recorded as “+++ (+++ indicates greater than 20% labelling)”. Further, in experiment [3], the pIC50 was no less than 6.00.
As for `CN1CCC[C@H]1COc1nc(N2CCOC3(CN(C(=O)n4cncn4)C3)C2)c2cc(Cl)c(-c3ccc(F)c4sc(N)c(C#N)c34)c(F)c2n1` [Compound A182, 4-(4-(2-(1H-1,2,4-triazole-1-carbonyl)-5-oxa-2,8-diazaspiro[3.5]nonan-8-yl)-6-chloro-8-fluoro-2-(((S)-1-methylpyrrolidin-2-yl)methoxy)quinazolin-7-yl)-2-amino-7-fluorobenzo[b]thiophene-3-carbonitrile], the “% G12S Modification at 24 hr.” value in experiment [1] is on record as “++ (++ indicates between about 1%- 20% labelling)”. Moreover, the “Ratio” value in experiment [2] is listed as “A (A: indicates that the ratio of IC50 against KrasG12D vs. IC50 against KrasG12S is 1-fold or greater)”.
As for `N#Cc1cnn(C(=O)N2CCCN(c3nc(OC[C@@]45CCCN4C[C@H](F)C5)nc4c(F)c(-c5ccc(F)c6sc(N)nc56)c(Cl)cc34)CC2)c1` [Compound A231, 1-(4-(7-(2-amino-7-fluorobenzo[d]thiazol-4-yl)-6-chloro-8-fluoro-2-(((2R,7aS)-2-fluorotetrahydro-1H-pyrrolizin-7a(5H)-yl)methoxy)quinazolin-4-yl)-1,4-diazepane-1-carbonyl)-1H-pyrazole-4-carbonitrile], in experiment [1], the “% G12S Modification at 24 hr.” value is recorded as “++ (++ indicates between about 1%- 20% labelling)”. Also, the “Ratio” value in experiment [2] is on record as “A (A: indicates that the ratio of IC50 against KrasG12D vs. IC50 against KrasG12S is 1-fold or greater)”.
Consider `Nc1nc2c(-c3c(Cl)cc4c(N5CCCC6(CN(C(=O)n7cncn7)CCO6)C5)nc(OC[C@@]56CCCN5C[C@H](F)C6)nc4c3F)ccc(F)c2s1` (stereo partly drawn) [Compound A125, (8-(7-(2-amino-7-fluorobenzo[d]thiazol-4-yl)-6-chloro-8-fluoro-2-(((2R,7aS)-2-fluorotetrahydro-1H-pyrrolizin-7a(5H)-yl)methoxy)quinazolin-4-yl)-1-oxa-4,8-diazaspiro [5.5]undecan-4-yl)(1H-1,2,4-triazol-1-yl)methanone], for which the “% G12S Modification at 24 hr.” value in experiment [1] is on record as “++ (++ indicates between about 1%- 20% labelling)”. In addition, in experiment [2], the “Ratio” value is listed as “A (A: indicates that the ratio of IC50 against KrasG12D vs. IC50 against KrasG12S is 1-fold or greater)”.
Turning to `N#Cc1cccn1C(=O)N1CCN(c2nc(OC[C@@]34CCCN3C[C@H](F)C4)nc3c(F)c(-c4ccc(F)c5sc(N)nc45)c(Cl)cc23)CC1` [Compound A287, 1-(4-(7-(2-amino-7-fluorobenzo[d]thiazol-4-yl)-6-chloro-8-fluoro-2-(((2R,7aS)-2-fluorotetrahydro-1H-pyrrolizin-7a(5H)-yl)methoxy)quinazolin-4-yl)piperazine-1-carbonyl)-1H-pyrrole-2-carbonitrile], in experiment [1], the “% G12S Modification at 24 hr.” value was “++ (++ indicates between about 1%- 20% labelling)”. Further, the pIC50 in experiment [3] is 5.00 to 6.00.
As to `Nc1nc2c(-c3c(Cl)cc4c(N5CCC6(CCN(C(=O)n7cncn7)CC6)C5)nc(OC[C@@]56CCCN5C[C@H](F)C6)nc4c3F)ccc(F)c2s1` [Compound A198, (2-(7-(2-amino-7-fluorobenzo[d]thiazol-4-yl)-6-chloro-8-fluoro-2-(((2R,7aS)-2-fluorotetrahydro-1H-pyrrolizin-7a(5H)-yl)methoxy)quinazolin-4-yl)-2,8-diazaspiro[4.5]decan-8-yl)(1H-1,2,4-triazol-1-yl)methanone], the “% G12S Modification at 24 hr.” value in experiment [1] was “+++ (+++ indicates greater than 20% labelling)”. Further, in experiment [2], the “Ratio” value is “A (A: indicates that the ratio of IC50 against KrasG12D vs. IC50 against KrasG12S is 1-fold or greater)”.
`CC1(C)CN(c2nc(OC[C@@]34CCCN3C[C@H](F)C4)nc3c(F)c(-c4ccc(F)c5sc(N)nc45)c(Cl)cc23)CC2(CN(C(=O)n3cncn3)C2)O1` [Compound A212, (8-(7-(2-amino-7-fluorobenzo[d]thiazol-4-yl)-6-chloro-8-fluoro-2-(((2R,7aS)-2-fluorotetrahydro-1H-pyrrolizin-7a(5H)-yl)methoxy)quinazolin-4-yl)-6,6-dimethyl-5-oxa-2,8-diazaspiro[3.5]nonan-2-yl)(1H-1,2,4-triazol-1-yl)methanone]: the “% G12S Modification at 24 hr.” value in experiment [1] was “+++ (+++ indicates greater than 20% labelling)”. Further, in experiment [3], the pIC50 was 5.00 to 6.00.
